Test system: 485368-065-R3-J5-PDC spheroids with HUVEC/MSC, viability
Experiment: Anticancer human tumor 485368-065-R3-J5-PDC patient-derived pancreatic carcinoma cell line growth inhibition [RAS]
Conditions: for IC50: curve of first compound; for viability, T/C: stronger effect = lower value
In short: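 Multi-cell-type spheroids: tumor cells plus HUVEC endothelial cells and mesenchymal stem cells. RAS-pathway inhibitors were combined with targeted agents, each dosed in half-log steps down from clinical Cmax, or from 10 microM when Cmax was unknown.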

[1] = second compound 0.00316 µM, first compound 0.000949 µM
[2] = second compound 0.00316 µM, first compound 0.003 µM
[3] = second compound 0.00316 µM, first compound 0.00949 µM
[4] = second compound 0.00316 µM, first compound 0.03 µM
[5] = second compound 0.00316 µM, first compound 0.0949 µM
[6] = second compound 0.00316 µM, first compound 0.3 µM
[7] = second compound 0.01 µM, first compound 0.000949 µM
[8] = second compound 0.01 µM, first compound 0.003 µM
[9] = second compound 0.01 µM, first compound 0.00949 µM
[10] = second compound 0.01 µM, first compound 0.03 µM
[11] = second compound 0.01 µM, first compound 0.0949 µM
[12] = second compound 0.01 µM, first compound 0.3 µM
[13] = second compound 0.0316 µM, first compound 0.000949 µM
[14] = second compound 0.0316 µM, first compound 0.003 µM
[15] = second compound 0.0316 µM, first compound 0.00949 µM
[16] = second compound 0.0316 µM, first compound 0.03 µM
[17] = second compound 0.0316 µM, first compound 0.0949 µM
[18] = second compound 0.0316 µM, first compound 0.3 µM
[19] = second compound 0.1 µM, first compound 0.000949 µM
[20] = second compound 0.1 µM, first compound 0.003 µM
[21] = second compound 0.1 µM, first compound 0.00949 µM
[22] = second compound 0.1 µM, first compound 0.03 µM
[23] = second compound 0.1 µM, first compound 0.0949 µM
[24] = second compound 0.1 µM, first compound 0.3 µM
[25] = second compound 0.316 µM, first compound 0.000949 µM
[26] = second compound 0.316 µM, first compound 0.003 µM
[27] = second compound 0.316 µM, first compound 0.00949 µM
[28] = second compound 0.316 µM, first compound 0.03 µM
[29] = second compound 0.316 µM, first compound 0.0949 µM
[30] = second compound 0.316 µM, first compound 0.3 µM
[31] = second compound 1 µM, first compound 0.000949 µM
[32] = second compound 1 µM, first compound 0.003 µM
[33] = second compound 1 µM, first compound 0.00949 µM
[34] = second compound 1 µM, first compound 0.03 µM
[35] = second compound 1 µM, first compound 0.0949 µM
[36] = second compound 1 µM, first compound 0.3 µM
[37] = second compound 0.000949 µM, first compound 0.00316 µM
[38] = second compound 0.000949 µM, first compound 0.01 µM
[39] = second compound 0.000949 µM, first compound 0.0316 µM
[40] = second compound 0.000949 µM, first compound 0.1 µM
[41] = second compound 0.000949 µM, first compound 0.316 µM
[42] = second compound 0.000949 µM, first compound 1 µM
[43] = second compound 0.003 µM, first compound 0.00316 µM
[44] = second compound 0.003 µM, first compound 0.01 µM
[45] = second compound 0.003 µM, first compound 0.0316 µM
[46] = second compound 0.003 µM, first compound 0.1 µM
[47] = second compound 0.003 µM, first compound 0.316 µM
[48] = second compound 0.003 µM, first compound 1 µM
[49] = second compound 0.00949 µM, first compound 0.00316 µM
[50] = second compound 0.00949 µM, first compound 0.01 µM
[51] = second compound 0.00949 µM, first compound 0.0316 µM
[52] = second compound 0.00949 µM, first compound 0.1 µM
[53] = second compound 0.00949 µM, first compound 0.316 µM
[54] = second compound 0.00949 µM, first compound 1 µM
[55] = second compound 0.03 µM, first compound 0.00316 µM
[56] = second compound 0.03 µM, first compound 0.01 µM
[57] = second compound 0.03 µM, first compound 0.0316 µM
[58] = second compound 0.03 µM, first compound 0.1 µM
[59] = second compound 0.03 µM, first compound 0.316 µM
[60] = second compound 0.03 µM, first compound 1 µM
[61] = second compound 0.0949 µM, first compound 0.00316 µM
[62] = second compound 0.0949 µM, first compound 0.01 µM
[63] = second compound 0.0949 µM, first compound 0.0316 µM
[64] = second compound 0.0949 µM, first compound 0.1 µM
[65] = second compound 0.0949 µM, first compound 0.316 µM
[66] = second compound 0.0949 µM, first compound 1 µM
[67] = second compound 0.3 µM, first compound 0.00316 µM
[68] = second compound 0.3 µM, first compound 0.01 µM
[69] = second compound 0.3 µM, first compound 0.0316 µM
[70] = second compound 0.3 µM, first compound 0.1 µM
[71] = second compound 0.3 µM, first compound 0.316 µM
[72] = second compound 0.3 µM, first compound 1 µM
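Further: spheroids exposed to agents for seven days before readout.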

## CC1(C)CCC(Nc2ncc(C(F)(F)F)c(-c3c[nH]c4c(P(C)(C)=O)c(C#N)ccc34)n2)CN1 (stereo not drawn) + C=CC(=O)N1CCN(c2nc(OCC3CCCN3C)nc3c(F)c(-c4nc(N)cc(C)c4C(F)(F)F)c(Cl)cc23)C(C)C1
Second compound 0.00316 µM
  IC50: 2.36 nM
Second compound 0.01 µM
  IC50: 2.61 nM
Second compound 0.0316 µM
  IC50: 3.73 nM
Second compound 0.1 µM
  IC50: 3.95 nM
Second compound 0.316 µM
  IC50: 2.89 nM
Second compound 1 µM
  IC50: 4.02 nM
[1]
  viability, T/C: 92.5%
[2]
  viability, T/C: 39.1%
[3]
  viability, T/C: 26.9%
[4]
  viability, T/C: 26.3%
[5]
  viability, T/C: 30.9%
[6]
  viability, T/C: 27.9%
[7]
  viability, T/C: 87.5%
[8]
  viability, T/C: 44.9%
[9]
  viability, T/C: 26.5%
[10]
  viability, T/C: 28.2%
[11]
  viability, T/C: 28.2%
[12]
  viability, T/C: 29.1%
[13]
  viability, T/C: 73.6%
[14]
  viability, T/C: 54%
[15]
  viability, T/C: 32.8%
[16]
  viability, T/C: 30.6%
[17]
  viability, T/C: 30.8%
[18]
  viability, T/C: 28.2%
[19]
  viability, T/C: 83.5%
[20]
  viability, T/C: 55.5%
[21]
  viability, T/C: 32.3%
[22]
  viability, T/C: 30.9%
[23]
  viability, T/C: 30.5%
[24]
  viability, T/C: 34.3%
[25]
  viability, T/C: 100%
[26]
  viability, T/C: 48.4%
[27]
  viability, T/C: 32.6%
[28]
  viability, T/C: 28.4%
[29]
  viability, T/C: 30.6%
[30]
  viability, T/C: 27.4%
[31]
  viability, T/C: 87.1%
[32]
  viability, T/C: 55.1%
[33]
  viability, T/C: 35.8%
[34]
  viability, T/C: 25.6%
[35]
  viability, T/C: 32.1%
[36]
  viability, T/C: 34.2%

## CCc1c2c(nc3ccc(O)cc13)-c1cc3c(c(=O)n1C2)COC(=O)[C@]3(O)CC + C=CC(=O)N1CCN(c2nc(OCC3CCCN3C)nc3c(F)c(-c4nc(N)cc(C)c4C(F)(F)F)c(Cl)cc23)C(C)C1
Second compound 0.00316 µM
  IC50: 1.96 nM
Second compound 0.01 µM
  IC50: 2.09 nM
Second compound 0.0316 µM
  IC50: 2.15 nM
Second compound 0.1 µM
  IC50: 2.06 nM
Second compound 0.316 µM
  IC50: 2.08 nM
Second compound 1 µM
  IC50: 1.76 nM
[1]
  viability, T/C: 87.9%
[2]
  viability, T/C: 25.8%
[3]
  viability, T/C: 15.8%
[4]
  viability, T/C: 6.75%
[5]
  viability, T/C: 4.49%
[6]
  viability, T/C: 3.28%
[7]
  viability, T/C: 90.6%
[8]
  viability, T/C: 28.9%
[9]
  viability, T/C: 17.6%
[10]
  viability, T/C: 7.17%
[11]
  viability, T/C: 3.98%
[12]
  viability, T/C: 3.67%
[13]
  viability, T/C: 89.7%
[14]
  viability, T/C: 33.6%
[15]
  viability, T/C: 13%
[16]
  viability, T/C: 6.26%
[17]
  viability, T/C: 4.82%
[18]
  viability, T/C: 3.26%
[19]
  viability, T/C: 85.4%
[20]
  viability, T/C: 32.5%
[21]
  viability, T/C: 12.2%
[22]
  viability, T/C: 6.25%
[23]
  viability, T/C: 4.43%
[24]
  viability, T/C: 3.35%
[25]
  viability, T/C: 81.7%
[26]
  viability, T/C: 34.7%
[27]
  viability, T/C: 15.1%
[28]
  viability, T/C: 5.63%
[29]
  viability, T/C: 4.4%
[30]
  viability, T/C: 3.28%
[31]
  viability, T/C: 74.6%
[32]
  viability, T/C: 26.8%
[33]
  viability, T/C: 16.5%
[34]
  viability, T/C: 5.78%
[35]
  viability, T/C: 5.14%
[36]
  viability, T/C: 3.4%

## C=CC(=O)Nc1cc(Nc2nccc(-c3cn(C)c4ccccc34)n2)c(OC)cc1N(C)CCN(C)C + CCn1c(-c2cc(N3CCN(C)CC3)cnc2C(C)OC)c2c3cc(ccc31)-c1csc(n1)CC(NC(=O)C1CC1C)C(=O)N1CCCC(N1)C(=O)OCC(C)(C)C2
Second compound 0.000949 µM
  IC50: < 3.16 nM
Second compound 0.003 µM
  IC50: < 3.16 nM
Second compound 0.00949 µM
  IC50: < 3.16 nM
Second compound 0.03 µM
  IC50: < 3.16 nM
Second compound 0.0949 µM
  IC50: < 3.16 nM
Second compound 0.3 µM
  IC50: < 3.16 nM
[37]
  viability, T/C: 38.2%
[38]
  viability, T/C: 34.1%
[39]
  viability, T/C: 30.4%
[40]
  viability, T/C: 28.6%
[41]
  viability, T/C: 25.3%
[42]
  viability, T/C: 17.8%
[43]
  viability, T/C: 21.1%
[44]
  viability, T/C: 19.9%
[45]
  viability, T/C: 18.6%
[46]
  viability, T/C: 14.6%
[47]
  viability, T/C: 13.4%
[48]
  viability, T/C: 10.9%
[49]
  viability, T/C: 16.4%
[50]
  viability, T/C: 15.7%
[51]
  viability, T/C: 15.5%
[52]
  viability, T/C: 13.1%
[53]
  viability, T/C: 9.97%
[54]
  viability, T/C: 7.7%
[55]
  viability, T/C: 13%
[56]
  viability, T/C: 11.8%
[57]
  viability, T/C: 9.7%
[58]
  viability, T/C: 9.51%
[59]
  viability, T/C: 7.35%
[60]
  viability, T/C: 5.44%
[61]
  viability, T/C: 8.87%
[62]
  viability, T/C: 9.53%
[63]
  viability, T/C: 8.8%
[64]
  viability, T/C: 6.02%
[65]
  viability, T/C: 6.17%
[66]
  viability, T/C: 3.77%
[67]
  viability, T/C: 8.98%
[68]
  viability, T/C: 8.98%
[69]
  viability, T/C: 7.33%
[70]
  viability, T/C: 7.51%
[71]
  viability, T/C: 4.7%
[72]
  viability, T/C: 3.38%

## O=C(c1ccc(F)c(F)c1Nc1ccc(I)cc1F)N1CC(O)([C@@H]2CCCCN2)C1 + CCn1c(-c2cc(N3CCN(C)CC3)cnc2C(C)OC)c2c3cc(ccc31)-c1csc(n1)CC(NC(=O)C1CC1C)C(=O)N1CCCC(N1)C(=O)OCC(C)(C)C2
Second compound 0.000949 µM
  IC50: < 3.16 nM
Second compound 0.003 µM
  IC50: < 3.16 nM
Second compound 0.00949 µM
  IC50: < 3.16 nM
Second compound 0.03 µM
  IC50: < 3.16 nM
Second compound 0.0949 µM
  IC50: < 3.16 nM
Second compound 0.3 µM
  IC50: < 3.16 nM
[37]
  viability, T/C: 32.9%
[38]
  viability, T/C: 29.9%
[39]
  viability, T/C: 22.8%
[40]
  viability, T/C: 17.6%
[41]
  viability, T/C: 12.8%
[42]
  viability, T/C: 3.33%
[43]
  viability, T/C: 19.3%
[44]
  viability, T/C: 20.3%
[45]
  viability, T/C: 14.9%
[46]
  viability, T/C: 10.8%
[47]
  viability, T/C: 4.68%
[48]
  viability, T/C: 1.33%
[49]
  viability, T/C: 16.1%
[50]
  viability, T/C: 12.9%
[51]
  viability, T/C: 10.6%
[52]
  viability, T/C: 5.68%
[53]
  viability, T/C: 1.77%
[54]
  viability, T/C: 1.26%
[55]
  viability, T/C: 10.3%
[56]
  viability, T/C: 8.49%
[57]
  viability, T/C: 6.41%
[58]
  viability, T/C: 2.18%
[59]
  viability, T/C: 1.53%
[60]
  viability, T/C: 1.44%
[61]
  viability, T/C: 6.98%
[62]
  viability, T/C: 5.08%
[63]
  viability, T/C: 3%
[64]
  viability, T/C: 1.9%
[65]
  viability, T/C: 1.88%
[66]
  viability, T/C: 1.97%
[67]
  viability, T/C: 6.37%
[68]
  viability, T/C: 3.9%
[69]
  viability, T/C: 2.16%
[70]
  viability, T/C: 2.03%
[71]
  viability, T/C: 2.03%
[72]
  viability, T/C: 2.14%
